Data published in US10774051B2, “6-membered heterocyclic derivatives and pharmaceutical composition comprising the same” (Shionogi & Co., Ltd., priority 2015, dated 2020).

These molecules were tested against human P2X7 receptor (Homo sapiens, UniProt Q99572, R270H/Y155H) (assay: Evaluation of human P2X7 receptor inhibitory activity (Yo-Pro uptake, BzATP stimulation, FLIPR TETRA)). Details: 1321N1 cells stably expressing human P2X7 receptor; BzATP stimulation, Yo-Pro uptake; read-out: IC50 (antagonistic activity for the human P2X7 receptor).
Type: cell-based
In short: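 1321N1 cells stably expressing human P2X7 (T606C/G952A SNP variant), in HBSS buffer pH 7.4-7.5 with Yo-Pro, stimulated with BzATP; compound added 8 min after agonist. Fluorescence followed for 20 min on FLIPR; max-minus-min change gave % inhibition, IC50 by logistic fit.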

Point of comparison: `Cc1ccc(-c2nnco2)cc1Nc1nc(=O)c(F)cn1Cc1cc(F)c(F)c(F)c1` [Compound I-1216], IC50 6 nM. Against it:
- C=Cc1ccccc1Nc1nc(=O)c(F)cn1Cc1cc(F)c(F)c(F)c1 [Compound I-1188] — 1.5-fold lower, 4 nM
- Cc1c(Nc2nc(=O)cnn2Cc2cc(F)c(F)c(F)c2)ccc2[nH]ccc12 [Compound I-1263] — 2-fold lower, 3 nM

Same assay, conditions: antagonistic activity for the human P2X7 receptor; read-out: IC50

`COc1cc(Cl)c(Nc2nc(=O)c(F)cn2Cc2cc(F)c(F)c(F)c2)cc1OC` [Compound I-1187] and `CCc1cc(OC)c(OC)cc1Nc1nc(=O)c(F)cn1Cc1cc(F)c(F)c(F)c1` [Compound I-1220] cannot be ordered by IC50: < 10 nM for the first, < 10 nM for the second.

`Cc1cccc(Nc2nc(=O)c(F)cn2Cc2cc(F)c(F)c(F)c2)c1C` [Compound I-1189] and `Cc1c(Cl)cccc1Nc1nc(=O)c(F)cn1Cc1cc(F)c(F)c(F)c1` [Compound I-1219] cannot be ordered by IC50: < 10 nM for the first, < 10 nM for the second.

`CCc1ccc(Cl)cc1Nc1nc(=O)c(F)cn1Cc1cc(F)c(F)c(F)c1` [Compound I-1190] and `Cc1ccc(Cl)cc1Nc1nc(=O)c(F)cn1Cc1cc(F)c(F)c(F)c1` [Compound I-1209] cannot be ordered by IC50: < 10 nM for the first, < 10 nM for the second.

`CCc1ccc(OC)cc1Nc1nc(=O)c(F)cn1Cc1cc(F)c(F)c(F)c1` [Compound I-1191] and `CCc1cc(OC)ccc1Nc1nc(=O)c(F)cn1Cc1cc(F)c(F)c(F)c1` [Compound I-1197] cannot be ordered by IC50: < 10 nM for the first, < 10 nM for the second.

`Cc1cc(Cl)ccc1Nc1nc(=O)c(F)cn1Cc1cc(F)c(F)c(F)c1` [Compound I-1192] and `Cc1ccc(Nc2nc(=O)c(F)cn2Cc2cc(F)c(F)c(F)c2)c(C)c1` [Compound I-1193] cannot be ordered by IC50: < 10 nM for the first, < 10 nM for the second.

`Cc1ccc(C)c(Nc2nc(=O)c(F)cn2Cc2cc(F)c(F)c(F)c2)c1` [Compound I-1194] and `Cc1ccc(Cl)c(Nc2nc(=O)c(F)cn2Cc2cc(F)c(F)c(F)c2)c1` [Compound I-1195] cannot be ordered by IC50: < 10 nM for the first, < 10 nM for the second.

`COc1ccc(Cl)c(Nc2nc(=O)c(F)cn2Cc2cc(F)c(F)c(F)c2)c1` [Compound I-1196] and `CCOc1ccc(Cl)c(Nc2nc(=O)c(F)cn2Cc2cc(F)c(F)c(F)c2)c1` [Compound I-1217] cannot be ordered by IC50: < 10 nM for the first, < 10 nM for the second.

`Cc1nc2ccc(Nc3nc(=O)c(F)cn3Cc3cc(F)cc(F)c3)c(C)c2s1` [Compound I-1198] and `Cc1nc2ccc(Nc3nc(=O)c(F)cn3Cc3cc(F)c(F)c(F)c3)c(C)c2s1` [Compound I-1199] cannot be ordered by IC50: < 10 nM for the first, < 10 nM for the second.

`Cc1cc(C)c(Nc2nc(=O)c(F)cn2Cc2cc(F)c(F)c(F)c2)cc1C` [Compound I-1200] and `Cc1cc(Nc2nc(=O)c(F)cn2Cc2cc(F)c(F)c(F)c2)c(C)cc1Cl` [Compound I-1207] cannot be ordered by IC50: < 10 nM for the first, < 10 nM for the second.

`CCOc1cc(C)c(Nc2nc(=O)c(F)cn2Cc2cc(F)c(F)c(F)c2)cc1C` [Compound I-1201] and `Cc1cc(OC(F)F)c(C)cc1Nc1nc(=O)c(F)cn1Cc1cc(F)c(F)c(F)c1` [Compound I-1210] cannot be ordered by IC50: < 10 nM for the first, < 10 nM for the second.

`Cc1c(Nc2nc(=O)c(F)cn2Cc2cc(F)cc(F)c2)ccc2scnc12` [Compound I-1202] and `Cc1c(Nc2nc(=O)c(F)cn2Cc2cc(F)c(F)c(F)c2)ccc2scnc12` [Compound I-1203] cannot be ordered by IC50: < 10 nM for the first, < 10 nM for the second.

`COCCOc1cc(Nc2nc(=O)c(F)cn2Cc2cc(F)c(F)c(F)c2)c(C)cc1F` [Compound I-1204] and `Cc1cc(Nc2nc(=O)c(F)cn2Cc2cc(F)c(F)c(F)c2)c(C)cc1F` [Compound I-1227] cannot be ordered by IC50: < 10 nM for the first, < 10 nM for the second.

`Cc1ccc(OCCO)cc1Nc1nc(=O)c(F)cn1Cc1cc(F)c(F)c(F)c1` [Compound I-1205] and `CCc1ccc(C)c(Nc2nc(=O)c(F)cn2Cc2cc(F)c(F)c(F)c2)c1` [Compound I-1226] cannot be ordered by IC50: < 10 nM for the first, < 10 nM for the second.

`Cc1cc(Nc2nc(=O)c(F)cn2Cc2cc(F)cc(F)c2)c(C)cc1Cl` [Compound I-1206] and `Cc1cc(Nc2nc(=O)c(F)cn2Cc2cc(F)cc(F)c2)c(Cl)cc1F` [Compound I-1224] cannot be ordered by IC50: < 10 nM for the first, < 10 nM for the second.

`CCc1cc(F)ccc1Nc1nc(=O)c(F)cn1Cc1cc(F)c(F)c(F)c1` [Compound I-1208] and `CCc1ccc(F)c(Nc2nc(=O)c(F)cn2Cc2cc(F)c(F)c(F)c2)c1` [Compound I-1218] cannot be ordered by IC50: < 10 nM for the first, < 10 nM for the second.

`CCc1cc(F)c(OC)cc1Nc1nc(=O)c(F)cn1Cc1cc(F)c(F)c(F)c1` [Compound I-1211] and `COc1cc(Cl)c(Nc2nc(=O)c(F)cn2Cc2cc(F)c(F)c(F)c2)cc1F` [Compound I-1239] cannot be ordered by IC50: < 10 nM for the first, < 10 nM for the second.

`Cc1cc(S(C)(=O)=O)cc(Nc2nc(=O)c(F)cn2Cc2cc(F)c(F)c(F)c2)c1C` [Compound I-1212] and `Cc1cc(F)c(C)c(Nc2nc(=O)c(F)cn2Cc2cc(F)c(F)c(F)c2)c1` [Compound I-1244] cannot be ordered by IC50: < 10 nM for the first, < 10 nM for the second.

`Cc1c(F)cccc1Nc1nc(=O)c(F)cn1Cc1ccc(F)c(Cl)c1` [Compound I-1213] and `CCOc1c(C)cccc1Nc1nc(=O)c(F)cn1Cc1cc(F)c(F)c(F)c1` [Compound I-1223] cannot be ordered by IC50: < 10 nM for the first, < 10 nM for the second.

`CCc1cc(OC)ccc1Nc1nc(=O)c(F)cn1Cc1cc(F)cc(F)c1` [Compound I-1214] and `CCc1ccc(Nc2nc(=O)c(F)cn2Cc2cc(F)cc(F)c2)c(C)c1` [Compound I-1228] cannot be ordered by IC50: < 10 nM for the first, < 10 nM for the second.

`CCOc1ccc(F)c(Nc2nc(=O)c(F)cn2Cc2cc(F)c(F)c(F)c2)c1` [Compound I-1215] and `Cc1ccc(CF)cc1Nc1nc(=O)c(F)cn1Cc1cc(F)c(F)c(F)c1` [Compound I-1231] cannot be ordered by IC50: < 10 nM for the first, < 10 nM for the second.

`Cc1ccc(-c2cccn(C)c2=O)cc1Nc1nc(=O)c(F)cn1Cc1cc(F)c(F)c(F)c1` [Compound I-1221] and `C=C1C(c2cc(Nc3nc(=O)c(F)cn3Cc3cc(F)c(F)c(F)c3)c(C)cc2F)=CC=CN1C` [Compound I-1222] cannot be ordered by IC50: < 10 nM for the first, < 10 nM for the second.

`Cc1cc(Nc2nc(=O)c(F)cn2Cc2cc(F)c(F)c(F)c2)c(Cl)cc1F` [Compound I-1225] and `Cc1cc(C)c(Nc2nc(=O)c(F)cn2Cc2cc(F)c(F)c(F)c2)cc1F` [Compound I-1238] cannot be ordered by IC50: < 10 nM for the first, < 10 nM for the second.

`COCCn1ccc2c(C)c(Nc3nc(=O)c(F)cn3Cc3cc(F)cc(F)c3)ccc21` [Compound I-1229] and `COc1cc(C)c(C)c(Nc2nc(=O)c(F)cn2Cc2cc(F)cc(F)c2)c1` [Compound I-1233] cannot be ordered by IC50: < 10 nM for the first, < 10 nM for the second.

`Cc1cc(C)c(OC(F)F)cc1Nc1nc(=O)c(F)cn1Cc1cc(F)c(F)c(F)c1` [Compound I-1230] and `Cc1cc(C(F)F)ccc1Nc1nc(=O)c(F)cn1Cc1cc(F)c(F)c(F)c1` [Compound I-1237] cannot be ordered by IC50: < 10 nM for the first, < 10 nM for the second.

`Cc1cc(Nc2nc(=O)c(F)cn2Cc2cc(F)cc(F)c2)c(C)nc1OC(F)F` [Compound I-1234] and `Cc1ccc(CF)cc1Nc1nc(=O)c(F)cn1Cc1cc(F)cc(F)c1` [Compound I-1240] cannot be ordered by IC50: < 10 nM for the first, < 10 nM for the second.

`COc1cc(Nc2nc(=O)c(F)cn2Cc2cc(F)c(F)c(F)c2)c(C)nc1OC` [Compound I-1235] and `COc1ccc(Nc2nc(=O)c(F)cn2Cc2cc(F)c(F)c(F)c2)c(OC)c1C` [Compound I-1243] cannot be ordered by IC50: < 10 nM for the first, < 10 nM for the second.

`Cc1cc(CO)ccc1Nc1nc(=O)c(F)cn1Cc1cc(F)c(F)c(F)c1` [Compound I-1236] and `Cc1cc(N(C)C)ccc1Nc1nc(=O)c(F)cn1Cc1cc(F)c(F)c(F)c1` [Compound I-1242] cannot be ordered by IC50: < 10 nM for the first, < 10 nM for the second.

`Cc1cc(N(C)C)ccc1Nc1nc(=O)c(F)cn1Cc1cc(F)cc(F)c1` [Compound I-1241] and `COc1ccc(Nc2nc(=O)c(F)cn2Cc2cc(F)c(F)c(F)c2)c(C)c1F` [Compound I-1245] cannot be ordered by IC50: < 10 nM for the first, < 10 nM for the second.

`COc1ccc(C)c(Nc2nc(=O)c(CO)nn2Cc2cc(F)c(F)c(F)c2)c1` [Compound I-1246] and `COc1ccc(Nc2nc(=O)c(CO)nn2Cc2cc(F)c(F)c(F)c2)c(C)c1` [Compound I-1247] cannot be ordered by IC50: < 10 nM for the first, < 10 nM for the second.

`COc1cc(C)c(Nc2nc(=O)c(CF)nn2Cc2cc(F)c(F)c(F)c2)cc1OC` [Compound I-1248] and `COc1cc(C)c(Nc2nc(=O)c(CO)nn2Cc2cc(F)c(F)c(F)c2)cc1OC` [Compound I-1256] fall in the same range of IC50: 10 to 100 nM for the first, 10 to 100 nM for the second.

Compared with `COc1ccc(C)c(Nc2nc(=O)c(C(=O)O)nn2Cc2cc(F)c(F)c(F)c2)c1` [Compound I-1249], `COc1ccc(Nc2nc(=O)c(C(=O)O)nn2Cc2cc(F)c(F)c(F)c2)c(C)c1` [Compound I-1250] is higher in IC50: 10 to 100 nM for the first, 100 to 500 nM for the second.

`COc1cc(C)c(Nc2nc(=O)c(C(=O)O)nn2Cc2cc(F)c(F)c(F)c2)cc1OC` [Compound I-1251] and `CCOC(=O)c1nn(Cc2cc(F)c(F)c(F)c2)c(Nc2cc(OC)c(OC)cc2C)nc1=O` [Compound I-1252] fall in the same range of IC50: 10 to 100 nM for the first, 10 to 100 nM for the second.

Compared with `Cc1ccc(F)cc1Nc1nc(=O)c(CO)nn1Cc1cc(F)c(F)c(F)c1` [Compound I-1253], `Cc1ccc(CO)cc1Nc1nc(=O)c(C)nn1Cc1cc(F)c(F)c(F)c1` [Compound I-1254] is lower in IC50: 10 to 100 nM for the first, < 10 nM for the second. The second is the more potent here.

`Cc1ccc(CO)cc1Nc1nc(=O)cnn1Cc1cc(F)c(F)c(F)c1` [Compound I-1255] and `COc1cc(F)c(Nc2nc(=O)cnn2Cc2cc(F)c(F)c(F)c2)cc1OC` [Compound I-1258] cannot be ordered by IC50: < 10 nM for the first, < 10 nM for the second.

`COc1cc(F)c(Nc2nc(=O)c(C)nn2Cc2cc(F)c(F)c(F)c2)cc1OC` [Compound I-1257] and `COc1cc(C)c(Nc2nc(=O)c(C)nn2Cc2cc(F)c(F)c(F)c2)cc1OC` [Compound I-1266] fall in the same range of IC50: 10 to 100 nM for the first, 10 to 100 nM for the second.

First: COc1ccc(Nc2nc(=O)c(C)nn2Cc2cc(F)c(F)c(F)c2)c(C)n1 [Compound I-1259]
Second: Cc1nn(Cc2cc(F)c(F)c(F)c2)c(Nc2ccc3[nH]ccc3c2C)nc1=O [Compound I-1262]
The IC50 of the first is higher: 10 to 100 nM for the first, < 10 nM for the second.

First: Cc1nc2cc(C)c(Nc3nc(=O)c(C)nn3Cc3cc(F)cc(F)c3)cc2s1 [Compound I-1260]
Second: COc1cc(C)c(Nc2nc(=O)c(Cl)nn2Cc2cc(F)c(F)c(F)c2)cc1OC [Compound I-1264]
The IC50 of the first is higher: 10 to 100 nM for the first, < 10 nM for the second. The second is the more potent here.

In the case of `COc1ccc(Nc2nc(=O)c(Cl)nn2Cc2cc(F)c(F)c(F)c2)c(C)c1` [Compound I-1265], the IC50 is reported as 10 to 100 nM.
